Laboratory results reported in patent publication US11547678B2, “Aqueous pharmaceutical formulation of tapentadol for oral administration” (GRÜNENTHAL GMBH, priority 2011, dated 2023).

Experiments:
[1] = Antimicrobial robustness testing of 4 mg/mL oral solution, higher sodium benzoate: USP and Pharm. Eur. requirements (Example 4); assay type: cell-based; settings: 2.36 mg/mL sodium benzoate (corresponding to 2 mg/mL benzoic acid)
Protocol: Antimicrobial Robustness Testing of 4 mg/mL Tapentadol Oral Solution (Higher Concentration of Sodium Benzoate)
Based on the obtained results the test was repeated using a formulation containing a higher preservative concentration of 2.36 mg/mL instead of 1.77 mg/mL sodium benzoate.
The above study of example 3 was repeated using a formulation of 4 mg/mL tapentadol and 2.36 mg/mL sodium benzoate (corresponding to 2 mg/mL benzoic acid). The antimicrobial activity of the formulation was determined with 100% at target pH of 4 and with 80% of sodium benzoate at the pH limits of 3.5 and 4.5. The following compositions of the formulation were used for the antimicrobial robustness testing (Table 4).

mold (Aspergillus niger) = assay: Initial studies: activity against mold; assay type: cell-based; settings: 10 mg/mL free base
Description: (§1) The activity against mold (Aspergillus niger) is lower but still within the limits of the requirements of the Pharm. Eur. The activity of tapentadol hydrochloride against Aspergillus niger has been evaluated at lower drug concentrations and at pH 4.0 and 5.0 in formulations containing citric acid as buffer system and hydrochloric acid and sodium hydroxide to adjust the pH.

yeast = assay: Initial studies: activity against yeast; assay type: cell-based; settings: 10 mg/mL free base
[2] = Initial studies: antimicrobial activity of tapentadol hydrochloride; assay type: cell-based; settings: 10 mg/mL free base
Description: as §1

[3] = Antimicrobial robustness testing of 4 mg/mL oral solution, lower sodium benzoate: USP and Pharm. Eur. requirements (Example 3); assay type: cell-based; settings: 4 mg/mL solution
Protocol: Antimicrobial Robustness Testing of 4 mg/mL Tapentadol Oral Solution (Lower Concentration of Sodium Benzoate)
The 4 mg/mL solution of tapentadol has also been subjected to an antimicrobial robustness testing. […] Therefore, sodium benzoate has been used as a preservative in the formulation. The antimicrobial activity of the formulation was determined with 100% at target pH of 4 and with 80% of sodium benzoate at the pH limits of 3.5 and 4.5. The following compositions of the formulation were used for the antimicrobial robustness testing (Table 3).

[4] = Chemical stability of 4 and 20 mg/mL oral solution (Example 7); assay type: physicochemical; settings: 3 months storage
Protocol: Chemical Stability of 4 and 20 mg/mL Tapentadol Oral Solution
To investigate the chemical stability of tapentadol oral solutions in different concentrations (4 and 20 mg/mL), stability studies were performed over 3 months evaluating the following parameters appearance, assay of tapentadol, degradation, assay preservative (only for the 4 mg/mL formulation) and pH at 25° C./60% RH, 40° C./75% RH and 50° C. In addition, for the 4 mg/mL solution 2 weeks cycling studies (from −15° C. to 30° C. as well as from 5° C. to 40° C.) were performed.

Aspergillus niger = assay: Activity against Aspergillus niger at lower drug concentrations, pH 4.0 and 5.0 (Example 1); assay type: cell-based
Description: Determination of Antimicrobial Effective Concentration of Tapentadol Hydrochloride
as §1
The requirements of Pharm. Eur. for oral solutions (log reduction of 1 after 14 and no increase after 28 days concerning mold A. niger) are met at pH 4 for tapentadol concentrations of equal or above 8 mg/mL and at pH 5 for concentrations equal or above to 4 mg/m L.

Row | SMILES | antimicrobial efficacy for a 4 mg/mL tapentadol hydrochloride oral solution [1] | activity against mold (Aspergillus niger) (mold (Aspergillus niger)) | activity against yeast (yeast) | antimicrobial activity [2] | antimicrobial effect of the drug substance [3] | stability of the API in solution [4] | antimicrobial activity at pH 5 compared with pH 4 (Aspergillus niger; after 14 and 28 days) | concentration limit for antimicrobial effectiveness of tapentadol (Aspergillus niger; depending on the pH (4 to 5)) [mg/mL] | tapentadol concentration at which requirements of Pharm. Eur. for oral solutions concerning mold A. niger are met (Aspergillus niger; pH 5, log reduction of 1 after 14 and no increase after 28 days) [mg/mL]
1 | O=C([O-])c1ccccc1.[Na+] [sodium benzoate] | sufficient | – | – | – | – | – | – | – | –
2 | CC[C@@H](c1cccc(O)c1)[C@@H](C)CN(C)C.Cl [tapentadol hydrochloride, (1R,2R)-3-(3-dimethylamino-1-ethyl-2-methyl-propyl)-phenol hydrochloride] | – | lower but still within the limits of the requirements of the Pharm. Eur. | high | high | not sufficiently pronounced | good stability | better antimicrobial activity | 4 to 8 | ≥ 4
